Measured values published in US10604555B2, “GIP derivatives and uses thereof” (priority 2018, dated 2020).
*1 amine or outer side, *2 acyl side, *3 side chain or, on linkers, in order; H or OH if unused. Where a SMILES comes first, the peptide text is derived from it. Side-chain parts run from the residue outwards. [ ]: non-standard residue; d: D form. The star is where a group is joined. C18 diacid = O=C(O)CCCCCCCCCCCCCCCCC(=O)*; γGlu = O=C(O)[C@H](CCC(=O)[*:2])N[*:1]; Nle = CCCC[C@H](N)C(=O)O; Aib = CC(C)(N)C(=O)O

How the values were obtained:
human GIP receptor = target: T1, human GIP receptor (Homo sapiens, UniProt P48546); assay: In vitro potency (CRE luciferase; whole cells), BHK CRE luc2P hGIPR; format: cell-based; settings: 0.2% HSA
T1 construct: expressed in transfected cells; host or cells: BHK (parent line BHKTS13), BHK CRE luc2P hGIPR clone #5
T1 sequence (P48546 22-466): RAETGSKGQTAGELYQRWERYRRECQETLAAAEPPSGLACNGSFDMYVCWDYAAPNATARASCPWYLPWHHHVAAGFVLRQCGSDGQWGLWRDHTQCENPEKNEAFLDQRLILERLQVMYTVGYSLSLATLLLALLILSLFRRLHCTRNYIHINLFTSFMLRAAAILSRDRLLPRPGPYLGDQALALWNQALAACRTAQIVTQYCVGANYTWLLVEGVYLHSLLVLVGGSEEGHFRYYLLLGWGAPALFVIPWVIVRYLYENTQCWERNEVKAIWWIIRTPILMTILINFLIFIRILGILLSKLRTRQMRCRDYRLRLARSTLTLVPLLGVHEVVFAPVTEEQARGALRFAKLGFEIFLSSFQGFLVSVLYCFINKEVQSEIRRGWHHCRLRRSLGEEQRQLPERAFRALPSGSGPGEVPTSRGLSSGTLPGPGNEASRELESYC
Outline: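 BHK clones carrying a CRE luciferase element, each transfected with one human receptor, were seeded at 5000 cells/well overnight. Compounds were diluted in buffer with 1% ovalbumin and 0.1% Pluronic F-68, with or without human serum albumin. Luminescence was read after steadylite plus; non-linear log(agonist)-response fit, averaged over at least two replicates.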

[1] = Pharmacokinetic study in minipigs, terminal half-life after i.v. administration; format: in vivo; settings: female, Göttingen, minipig, plasma, iv, 5 nmol/kg; read-out: t1/2 (hours) harmonic mean (converted)
Experimental: This is done in a pharmacokinetic (PK) study, where the terminal half-life of the derivative in question is determined. By terminal half-life is generally meant the period of time it takes to halve a certain plasma concentration, measured after the initial distribution phase.
Female Göttingen minipigs were obtained from Ellegaard Göttingen Minipigs (Dalmose, Denmark) approximately 7-14 months of age and weighing from approximately 16-35 kg were used in the studies. The minipigs were housed individually and fed restrictedly once daily with SDS minipig diet (Special Diets Services, Essex, UK).
After at 3 weeks of acclimatisation two permanent central venous catheters were implanted in vena cava caudalis in each animal. The animals were allowed 1 week recovery after the surgery, and were then used for repeated pharmacokinetic studies with a suitable wash-out period between successive derivative dosing.
Blood samples (for example 0.8 ml) were collected in EDTA buffer (8 mM) and then centrifuged at 4° C. and 1942G for 10 minutes.
Individual plasma concentration-time profiles were analysed by a non-compartmental model in Phoenix WnNonLin ver. […] (Pharsight Inc., Mountain View, Calif., USA), and the resulting terminal half-lives (harmonic mean) determined.

human GLP-1 receptor = target: T2, human GLP-1 receptor (Homo sapiens, UniProt P43220); assay: In vitro potency (CRE luciferase; whole cells), BHK CRE luc2P hGLP-1R; format: cell-based; settings: 0.2% HSA
T2 construct: expressed in transfected cells; host or cells: BHK (parent line BHKTS13), BHK CRE luc2P hGLP-1R clone #6
T2 sequence (P43220 24-463): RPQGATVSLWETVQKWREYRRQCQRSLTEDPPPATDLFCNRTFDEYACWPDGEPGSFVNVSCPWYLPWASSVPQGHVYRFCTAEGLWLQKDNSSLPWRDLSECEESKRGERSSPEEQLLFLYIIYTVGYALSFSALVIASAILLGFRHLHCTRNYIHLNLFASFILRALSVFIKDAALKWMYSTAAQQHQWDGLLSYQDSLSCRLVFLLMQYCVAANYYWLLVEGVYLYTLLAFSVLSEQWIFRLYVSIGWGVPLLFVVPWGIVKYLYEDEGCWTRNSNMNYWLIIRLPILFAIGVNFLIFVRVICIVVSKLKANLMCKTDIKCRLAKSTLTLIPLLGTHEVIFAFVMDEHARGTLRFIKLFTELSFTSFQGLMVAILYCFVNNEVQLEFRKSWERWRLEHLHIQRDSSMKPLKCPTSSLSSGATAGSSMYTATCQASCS
Experimental: In Vitro Potency (CRE Luciferase; Whole Cells)
The in vitro potency is the measure of human GIP, GLP-1 or glucagon receptor activation, respectively, in a whole cell assay.
In vitro potency was determined by measuring the response of the human GIP, GLP-1 or glucagon receptor in a reporter gene assay in individual cell lines. […] When the respective receptor is activated it results in the production of cAMP, which in turn results in the luciferase protein being expressed. When assay incubation is completed the luciferase substrate (luciferin) is added and the enzyme converts luciferin to oxyluciferin to produce bioluminescence. The luminescence is measured as the readout for the assay.
The cells were derived from a clone containing the CRE luciferase element and were established by further transfection with the respective receptor to obtain the current clone.
The cells were cultured at 5% CO2 in Cell Culture Medium. They were aliquoted and stored in liquid nitrogen. The cells were kept in passage and were seeded out the day before each assay.
The Assay Buffer consisted of 1% ovalbumin and 0.1% Pluronic F-68 in Assay Medium with the addition of human serum albumin at twice the indicated concentrations.
1) Cells were plated at 5000 cells/well and incubated overnight.
2) Cells were washed three times in PBS.
3) Assay Medium (50 μl aliquot) with or without serum albumin was added to each well in the assay plate.
4) Stocks of the test compounds and reference compounds were diluted to a concentration of 0.2 μM in Assay Buffer. […] 8) The cells were washed three times with PBS plus some liquid in each well. 9) A 100 μl aliquot of steadylite plus reagent was added to each well of the assay plate (reagent was light sensitive). 10) Each assay plate was covered with aluminum foil to protect it from light and shaken for 30 min at room temperature. 11) Each assay plate was read in a microtiter plate reader. Calculations and Results
The data from the microtiter plate reader was transferred to GraphPad Prism software. The software performs a non-linear regression (log(agonist) vs response).
A minimum of two replicates was measured for each sample. The reported values are averages of the replicates.

Row | Structure (SMILES) | EC50 (human GIP receptor) | half-life [1] | EC50 (human GLP-1 receptor)
1 | CCCC[C@H](NC(=O)[C@H](C)NC(=O)[C@@H](NC(=O)[C@H](CO)NC(=O)[C@H](Cc1ccc(O)cc1)NC(=O)[C@H](CC(=O)O)NC(=O)[C@H](CO)NC(=O)[C@@H](NC(=O)[C@H](Cc1ccccc1)NC(=O)[C@@H](NC(=O)CNC(=O)[C@H](CCC(=O)O)NC(=O)[C@H](C)NC(=O)[C@@H](Cc1ccc(O)cc1)NC(C)=O)[C@@H](C)O)[C@@H](C)CC)[C@@H](C)CC)C(=O)N[C@@H](CC(=O)O)C(=O)N[C@@H](CCCCN)C(=O)N[C@H](C(=O)N[C@@H](CCCNC(=N)N)C(=O)N[C@@H](CCC(N)=O)C(=O)N[C@@H](CCC(N)=O)C(=O)N[C@@H](CC(=O)O)C(=O)N[C@@H](Cc1ccccc1)C(=O)N[C@H](C(=O)N[C@@H](CCCCNC(=O)COCCOCCNC(=O)COCCOCCNC(=O)CC[C@H](NC(=O)CC[C@H](NC(=O)CC[C@H](NC(=O)CCCCCCCCCCCCCCCCC(=O)O)C(=O)O)C(=O)O)C(=O)O)C(=O)N[C@@H](Cc1c[nH]c2ccccc12)C(=O)N[C@@H](CC(C)C)C(=O)N[C@@H](CC(C)C)C(=O)N[C@@H](C)C(=O)N[C@@H](CCC(N)=O)C(=O)N[C@@H](CCCCN)C(=O)NCC(=O)O)C(C)C)[C@@H](C)CC [Compound 17, N{1}-acetyl,N{Epsilon-24}-[2-[2-[2-[[2-[2-[2-[[(4S)-4-carboxy-4-[[(4S)-4-carboxy-4-[[(4S)-4-carboxy-4-(17-carboxyheptadecanoylamino)butanoyl]amino]butanoyl]amino]-butanoyl]amino]ethoxy]ethoxy]acetyl]amino]ethoxy]ethoxy]acetyl]-[D-Tyr1,Nle14,Arg18,Lys24]-hGIP(1-31)] | 43.1 pM | 88 h | 
2 | CCCC[C@H](NC(=O)[C@H](C)NC(=O)[C@@H](NC(=O)[C@H](CO)NC(=O)[C@H](Cc1ccc(O)cc1)NC(=O)[C@H](CC(=O)O)NC(=O)[C@H](CO)NC(=O)[C@@H](NC(=O)[C@H](Cc1ccccc1)NC(=O)[C@@H](NC(=O)CNC(=O)[C@H](CCC(=O)O)NC(=O)C(C)(C)NC(=O)[C@@H](Cc1ccc(O)cc1)NC(C)=O)[C@@H](C)O)[C@@H](C)CC)[C@@H](C)CC)C(=O)N[C@@H](CC(=O)O)C(=O)N[C@@H](CCCCN)C(=O)N[C@H](C(=O)N[C@@H](CCCNC(=N)N)C(=O)N[C@@H](CCC(N)=O)C(=O)N[C@@H](CCC(N)=O)C(=O)N[C@@H](CC(=O)O)C(=O)N[C@@H](Cc1ccccc1)C(=O)N[C@H](C(=O)N[C@@H](CCCCNC(=O)CC[C@H](NC(=O)CC[C@H](NC(=O)CC[C@H](NC(=O)CCCCCCCCCCCCCCCCC(=O)O)C(=O)O)C(=O)O)C(=O)O)C(=O)N[C@@H](Cc1c[nH]c2ccccc12)C(=O)N[C@@H](CC(C)C)C(=O)N[C@@H](CC(C)C)C(=O)N[C@@H](C)C(=O)N[C@@H](CCC(N)=O)C(=O)N[C@@H](CCCCN)C(=O)N1CCC[C@H]1C(N)=O)C(C)C)[C@@H](C)CC [Compound 46, N{1}-acetyl,N{Epsilon-24}-[(4S)-4-carboxy-4-[[(4S)-4-carboxy-4-[[(4S)-4-carboxy-4-(17-carboxyheptadecanoylamino)butanoyl]amino]butanoyl]amino]butanoyl]-[D-Tyr1,Aib2,Nle14,Arg18,Lys24,Pro31]-hGIP(1-31) amide] | 21.2 pM |  | > 100000 pM

Continued by falling EC50 (human GIP receptor), values first:

Row | EC50 (human GIP receptor) | half-life [1] | EC50 (human GLP-1 receptor) | Structure (SMILES)
3 | 48.9 pM | 84 h |  | CCCC[C@H](NC(=O)[C@H](C)NC(=O)[C@@H](NC(=O)[C@H](CO)NC(=O)[C@H](Cc1ccc(O)cc1)NC(=O)[C@H](CC(=O)O)NC(=O)[C@H](CO)NC(=O)[C@@H](NC(=O)[C@H](Cc1ccccc1)NC(=O)[C@@H](NC(=O)CNC(=O)[C@H](CCC(=O)O)NC(=O)[C@H](C)NC(=O)[C@@H](Cc1ccc(O)cc1)NC(C)=O)[C@@H](C)O)[C@@H](C)CC)[C@@H](C)CC)C(=O)N[C@@H](CC(=O)O)C(=O)N[C@@H](CCCCN)C(=O)N[C@H](C(=O)N[C@@H](CCCNC(=N)N)C(=O)N[C@@H](CCC(N)=O)C(=O)N[C@@H](CCC(N)=O)C(=O)N[C@@H](CC(=O)O)C(=O)N[C@@H](Cc1ccccc1)C(=O)N[C@H](C(=O)N[C@@H](CCCCNC(=O)CC[C@H](NC(=O)CC[C@H](NC(=O)CC[C@H](NC(=O)CCCCCCCCCCCCCCCCC(=O)O)C(=O)O)C(=O)O)C(=O)O)C(=O)N[C@@H](Cc1c[nH]c2ccccc12)C(=O)N[C@@H](CC(C)C)C(=O)N[C@@H](CC(C)C)C(=O)N[C@@H](C)C(=O)N[C@@H](CCC(N)=O)C(=O)N[C@@H](CCCCN)C(=O)NCC(=O)O)C(C)C)[C@@H](C)CC [Compound 7, N{1}-acetyl, N{Epsilon-24}-[(4S)-4-carboxy-4-[[(4S)-4-carboxy-4-[[(4S)-4-carboxy-4-(17-carboxyheptadecanoylamino)butanoyl]amino]butanoyl]amino]butanoyl]-[D-Tyr1,Nle14,Arg18, Lys24]-hGIP(1-31)]
4 | 30.4 pM | 81 h |  | CCCC[C@H](NC(=O)[C@H](C)NC(=O)[C@@H](NC(=O)[C@H](CO)NC(=O)[C@H](Cc1ccc(O)cc1)NC(=O)[C@H](CC(=O)O)NC(=O)[C@H](CO)NC(=O)[C@@H](NC(=O)[C@H](Cc1ccccc1)NC(=O)[C@@H](NC(=O)CNC(=O)[C@H](CCC(=O)O)NC(=O)[C@H](C)NC(=O)[C@@H](Cc1ccc(O)cc1)NC(C)=O)[C@@H](C)O)[C@@H](C)CC)[C@@H](C)CC)C(=O)N[C@@H](CC(=O)O)C(=O)N[C@@H](CCCCN)C(=O)N[C@H](C(=O)N[C@@H](CCCNC(=N)N)C(=O)N[C@@H](CCC(N)=O)C(=O)N[C@@H](CCC(N)=O)C(=O)N[C@@H](CC(=O)O)C(=O)N[C@@H](Cc1ccccc1)C(=O)N[C@H](C(=O)N[C@@H](CCCCNC(=O)COCCOCCNC(=O)COCCOCCNC(=O)CC[C@H](NC(=O)CCCCCCCCCCCCCCCCC(=O)O)C(=O)O)C(=O)N[C@@H](Cc1c[nH]c2ccccc12)C(=O)N[C@@H](CC(C)C)C(=O)N[C@@H](CC(C)C)C(=O)N[C@@H](C)C(=O)N[C@@H](CCC(N)=O)C(=O)N[C@@H](CCCCN)C(=O)NCC(=O)O)C(C)C)[C@@H](C)CC [Compound 15, N{1}-acetyl,N{Epsilon-24}-[2-[2-[2-[[2-[2-[2-[[(4S)-4-carboxy-4-(17-carboxyheptadecanoylamino)butanoyl]amino]ethoxy]ethoxy]acetyl]amino]ethoxy]ethoxy]acetyl]-[D-Tyr1,Nle14,Arg18,Lys24]-hGIP(1-31)]
5 | 9.4 pM | 89 h |  | CCCC[C@H](NC(=O)[C@H](C)NC(=O)[C@@H](NC(=O)[C@H](CO)NC(=O)[C@H](Cc1ccc(O)cc1)NC(=O)[C@H](CC(=O)O)NC(=O)[C@H](CO)NC(=O)[C@@H](NC(=O)[C@H](Cc1ccccc1)NC(=O)[C@@H](NC(=O)CNC(=O)[C@H](CCC(=O)O)NC(=O)C(C)(C)NC(=O)[C@@H](N)Cc1ccc(O)cc1)[C@@H](C)O)[C@@H](C)CC)[C@@H](C)CC)C(=O)N[C@@H](CC(=O)O)C(=O)N[C@@H](CCCCN)C(=O)N[C@H](C(=O)N[C@@H](CCCNC(=N)N)C(=O)N[C@@H](CCC(N)=O)C(=O)NC(C)(C)C(=O)N[C@@H](CC(=O)O)C(=O)N[C@@H](Cc1ccccc1)C(=O)N[C@H](C(=O)N[C@@H](CCCCNC(=O)CC[C@H](NC(=O)CC[C@H](NC(=O)CC[C@H](NC(=O)CCCCCCCCCCCCCCCCC(=O)O)C(=O)O)C(=O)O)C(=O)O)C(=O)N[C@@H](Cc1c[nH]c2ccccc12)C(=O)N[C@@H](CC(C)C)C(=O)N[C@@H](CC(C)C)C(=O)N[C@@H](C)C(=O)N[C@@H](CCC(N)=O)C(=O)N[C@@H](CCCCN)C(=O)NCC(=O)O)C(C)C)[C@@H](C)CC [Compound 11, N{Epsilon-24}-[(4S)-4-carboxy-4-[[(4S)-4-carboxy-4-[[(4S)-4-carboxy-4-(17-carboxyheptadecanoylamino)butanoyl]amino]butanoyl]amino]butanoyl]-[Aib2,Nle14,Arg18,Aib20,Lys24]-hGIP(1-31)] (H-Y[Aib]EGTFISDYSIA[Nle]DKIRQ[Aib]DFVK([γGlu-γGlu-γGlu-C18 diacid])WLLAQKG-OH)
